From patent publication US7582786B2, “Synthetic catalytic free radical scavengers useful as antioxidants for prevention and therapy of disease” (Eukarion Inc., priority 1996, dated 2009)
Entries after “also recorded” stand apart in the source; their conditions may differ.

What was measured:
Rats [1] = assay: Ischemia-reperfusion induced kidney damage in the rat; format: in vivo; details: 0.2 mg/kg single intravenous bolus at beginning of reperfusion
Description: Rats (“Untreated” and “C40” groups) were unilaterally nephrectomized. The remaining renal artery was clamped for 75 min then reperfused. Kidney function was assessed by determining creatinine levels in the blood. Where indicated, rats received C40 as a single intravenous bolus injection (0.2 mg/kg) at the beginning of the reperfusion period. Bilaterally nephrectomized rats, showing maximal creatinine levels in the absence of kidney function, died on day 2.

Rats [2] = assay: Rat model for stroke, Middle Cerebral Artery occlusion; format: in vivo; details: single intravenous injection 3 hr after MCA occlusion
Description: (§1) Rats were subjected to a Middle Cerebral Artery (MCA) Occlusion model involving permanent occlusion of the parietal branch of the left middle cerebral artery and temporary (60 min) occlusion of the common carotid arteries. As indicated, rats received a single intravenous injection of vehicle (Control), or C40 at 3 hr after the MCA was occluded. Twenty-one hr after MCA occlusion, brains were removed, sectioned, and stained with the viability dye TTC (2,3,5-triphenyltetrazolium chloride). The stained sections were photographed and the volumes of infarcted (unstained) and viable (red stained) brain tissue quantitated by image analysis.
as §1, with “occlusion” for “Occlusion”

mice = assay: Mouse model for delayed hypersensitivity (oxazolone, ear edema); format: in vivo; details: topical, 2.5 micrograms C7 per ear
Description: Mice (“Presensitized” and “Presensitized+C7” groups) were presensitized with oxazolone on the abdomen. One group (“Not presensitized”) received only vehicle on the abdomen at this time. After 7 days, each mouse was challenged with the oxazolone hapten on one ear and given vehicle only on the opposite ear. […] The other two groups received an equivalent volume of 90% acetone. Twenty-four hr after challenge, mice were sacrificed and ear edema was assessed by determining the wet weight/dry weight ratio. (Wet weight was determined by weighing the freshly dissected ear and dry weight was determined after lyophilization to a constant weight.)
Mice (“Presensitized” and “Presensitized+C7” groups) were presensitized with oxazolone on the abdomen. One group (“Not presensitized”) received only vehicle on the abdomen at this time. After 7 days, each mouse were challenged with the oxazolone hapten on one ear and given vehicle only on the opposite ear. […] The other two groups received an equivalent volume of 90% acetone. Twenty-four hr after challenge, mice were sacrificed and ear edema was assessed by determining the wet weight/dry weight ratio. (Wet weight was determined by weighing the freshly dissected ear and dry weight was determined after lyophilization to a constant weight.)

xanthine oxidase = xanthine oxidase (Homo sapiens, UniProt P47989); assay: Control reaction for direct inhibition of xanthine oxidase (urate production at 290 nm); format: biochemical; details: 6 and 11 μM C7
xanthine oxidase, sequence (P47989 whole entry, species assumed): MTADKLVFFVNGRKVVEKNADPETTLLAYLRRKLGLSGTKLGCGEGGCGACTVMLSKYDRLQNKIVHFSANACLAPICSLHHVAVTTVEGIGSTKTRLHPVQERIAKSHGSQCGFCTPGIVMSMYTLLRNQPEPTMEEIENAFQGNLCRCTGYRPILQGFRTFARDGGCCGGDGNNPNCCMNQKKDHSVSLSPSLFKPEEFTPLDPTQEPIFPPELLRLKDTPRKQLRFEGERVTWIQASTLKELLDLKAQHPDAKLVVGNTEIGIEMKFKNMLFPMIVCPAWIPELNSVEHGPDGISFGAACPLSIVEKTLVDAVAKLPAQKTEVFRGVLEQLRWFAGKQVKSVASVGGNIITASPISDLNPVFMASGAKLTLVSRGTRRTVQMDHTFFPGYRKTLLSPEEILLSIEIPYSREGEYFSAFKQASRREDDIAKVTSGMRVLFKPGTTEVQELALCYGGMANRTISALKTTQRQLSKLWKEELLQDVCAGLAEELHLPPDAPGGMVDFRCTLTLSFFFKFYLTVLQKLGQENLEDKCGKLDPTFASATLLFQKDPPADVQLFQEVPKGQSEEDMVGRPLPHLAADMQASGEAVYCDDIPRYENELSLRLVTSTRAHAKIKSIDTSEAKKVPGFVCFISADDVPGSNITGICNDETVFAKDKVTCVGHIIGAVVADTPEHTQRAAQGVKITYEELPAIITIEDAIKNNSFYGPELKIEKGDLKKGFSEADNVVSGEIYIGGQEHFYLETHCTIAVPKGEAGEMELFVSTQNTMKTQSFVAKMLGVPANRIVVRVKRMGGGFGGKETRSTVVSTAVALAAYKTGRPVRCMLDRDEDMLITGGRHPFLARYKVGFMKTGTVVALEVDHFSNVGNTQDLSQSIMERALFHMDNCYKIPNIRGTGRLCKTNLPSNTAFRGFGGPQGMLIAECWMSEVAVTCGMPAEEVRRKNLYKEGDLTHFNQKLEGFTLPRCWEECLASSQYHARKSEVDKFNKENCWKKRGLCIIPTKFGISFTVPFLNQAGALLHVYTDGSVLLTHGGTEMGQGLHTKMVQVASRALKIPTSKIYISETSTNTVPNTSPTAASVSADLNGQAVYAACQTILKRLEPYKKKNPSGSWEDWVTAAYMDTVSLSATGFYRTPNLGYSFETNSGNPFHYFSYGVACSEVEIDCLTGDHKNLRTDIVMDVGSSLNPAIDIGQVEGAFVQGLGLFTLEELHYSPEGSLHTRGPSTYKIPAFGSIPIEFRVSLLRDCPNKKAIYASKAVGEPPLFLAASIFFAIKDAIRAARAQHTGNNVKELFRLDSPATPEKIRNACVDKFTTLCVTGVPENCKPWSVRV
Description: (§2) Superoxide dismutase (SOD) activity was assayed by following the inhibition of the reduction of an electron acceptor molecule in the presence of the free-radical generating system xanthine/xanthine oxidase (McCord et al. (1973) Superoxide and Superoxide Dismutase in “Oxidases and Related Redox Systems, vol. I, King et al. eds., University Park press, Baltimore, pp. 51-76). The assay mixture consisted of 50 mM sodium phosphate, pH 7.8, 120 μM xanthine, 0.2 units/ml xanthine oxidase, with acceptor molecule and salen manganese compound, as indicated. Assays were conducted at 27±0.2° C. using a water-jacketed cell holder in a Beckman DU7400 spectrophotometer. In most cases, oxidized cytochrome c, at 0.13 mg/ml, was employed as acceptor and its reduction was monitored spectrophotometrically at 550 nm. In some experiments, nitroblue tetrazolium (NBT), at 80 μM, was substituted for cytochrome c as the acceptor. NBT reduction was also monitored at 550 nm. An estimated extinction coefficient for NBT reduction, 20,800 M^−1cm^−1, determined empirically by exhaustive reduction of NBT in the reaction mixture described above, was employed where indicated. This value agreed well with reported extinction coefficients for reduced tetrazolium dyes. […] Conversion of xanthine to urate was calculated using ε290's of […] for urate and 4050 M^−1cm^−1 for xanthine. […]

[3] = C7 inactivation in H2O2, HPLC; format: physicochemical; details: 100 μM C7, 1 mM H2O2, with 1 mM ABTS
Description: Where indicated, 1 mM ABTS was also present. Components were mixed and, after various incubations times, a 30 μl aliquot was injected onto the HPLC. The mixtures were chromatographed on an octadecyl-silica column using a mobile phase consisting of 60% methanol:40% 0.1 M Nacl and a flow rate of 1 ml/min. […] A third component, with a retention time of 4.8 min, was detectable under some conditions; its appearance and disappearance was monitored but it was not further analyzed. In this system, ABTS and its oxidized product had retention times of 3.4 and 3.1-min, respectively, well resolved from the peaks of interest. Absorbance spectra collected during each run allowed the identity of C7 and salicylaldehyde to be verified. All peaks were integrated based upon their absorbance at 240 nm. The results are expressed as the percentage of maximum peak area. […] For the two putative breakdown products, this is equivalent to the largest peak observed during the course of the ˜2000 sec incubation period.

[4] = SOD activity, xanthine/xanthine oxidase with NBT as acceptor (Example 2); format: biochemical
Description: as §2

[5] = In vitro model for acidosis-induced mucosal injury
[6] = SOD activity, inhibition of cytochrome C reduction by xanthine plus xanthine oxidase (Example 1); format: biochemical
Description: The SOD activity of the compounds was determined by evaluating the inhibition of the reduction of cytochrome C produced by the oxygen free radical generating system, xanthine plus xanthine oxidase. Cytochrome C reduction is monitored spectrophotometrically at 550 nm according to the method described in Darr et al. (1987) Arch. Biochem. Biophys. 258: 351, incorporated herein by reference. The concentration of xanthine oxidase is adjusted such that it produces a rate of reduction of cytochrome C at 550 nm of 0.025 absorbance unit per minute. Under these conditions, the amount of SOD activity required to inhibit the rate of cytochrome C reduction by 50 percent (i.e., to a rate of 0.0125 absorbance unit per minute) is defined as one unit of activity. Salen-metal complexes are identified as antioxidants if they have at least 0.1 unit of activity at a concentration of 1 mM under these standard assay conditions.

SJL female mice = assay: Experimental autoimmune encephalomyelitis (EAE); format: in vivo, mouse
Text: EAE is an animal model of multiple sclerosis.
Mice in both groups were immunized with an encephalitogenic PLP peptide in complete Freund's adjuvant subcutaneously, followed by Petrussis Toxin (IV). Petrussis toxin was repeated on day 3 post immunization.

SMILES	kidney damage, creatinine levels in the blood (Rats [1])	protection, infarct volume (Rats [2])	protection, ear edema (mice)	effect on xanthine oxidase activity (xanthine oxidase)	C7 peak disappeared rapidly [3]	C7 persisting for the ~2000 sec incubation [3]	NBT reduction ([4]; 0.1 to 6 μM C7)	inhibition of NBT reduction ([4]; about 1.7 nmoles C7)	protection against acidosis-induced mucosal injury [5]	SOD Activity ([6]; Example 1, cytochrome C reduction)	SOD Activity ([6]; previously found)	mice developing symptomatic EAE (SJL female mice; fifth week, three weeks after treatment with C7 was stopped)	mice developing symptomatic EAE (SJL female mice; third week following immunization, C7 1 mg/mouse IP daily, day -2 to 14)
COc1cccc2c1[O][Mn]([Cl])[O]c1c(cccc1OC)C=NCCN=C2 [Compound C40]	protects against ischemia-reperfusion induced kidney damage	protective											
[Cl][Mn]1[O]c2ccccc2C=NCCN=Cc2ccccc2[O]1 [Compound C7]			protective	no effect; also recorded: without affecting	about 20%	80%	inhibited the rate of NBT reduction in a concentration-dependent manner; also recorded: inhibits NBT reduction	about 59%	protective	575 units/mM	about 769 units/mM	six	one of 10
